In BindingDB's records for patent US9771375 (Janssen Pharmaceutica NV, 2017):

Molecular target: T1, Ketohexokinase (Human, UniProt P50053)
T1 sequence (P50053 whole entry): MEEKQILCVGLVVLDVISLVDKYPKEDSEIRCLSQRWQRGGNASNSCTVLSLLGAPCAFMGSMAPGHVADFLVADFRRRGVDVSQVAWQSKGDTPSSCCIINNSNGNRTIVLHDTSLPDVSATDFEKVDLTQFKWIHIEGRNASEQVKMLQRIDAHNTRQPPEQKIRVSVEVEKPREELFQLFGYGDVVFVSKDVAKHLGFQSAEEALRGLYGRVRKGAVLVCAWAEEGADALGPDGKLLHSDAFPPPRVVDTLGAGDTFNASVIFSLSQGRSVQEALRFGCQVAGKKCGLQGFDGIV
Experiment: Enzyme Assay
Protocol: An enzymatic assay was developed to measure KHK-mediated conversion of D-fructose to Fructose-1-P (F-1-P) using High Throughput Mass Spectroscopy (HTMS) as a means of product detection. […] The assay was carried out in 384-well plate format.

Work on `COc1nn(-c2ccccc2)c2cc(N3CN(C4CCNCC4)C3)ccc12` [US9771375, Example 73] yielded an IC50 of 390 nM.

`CCc1nn(-c2ccccc2)c2nc(-c3ccc(N4CCNCC4)cc3)nc(O)c12` [US9771375, Example 97] gave an IC50 of 2710 nM.
